≈ marks a conversion by molar mass, not a printed value. Calls of active or inactive are those of the source. The calls are words filed in the database; no cut-off is given here.
Tests used:
[1] = tested on: Staphylococcus aureus; assay: Antibacterial activity against Staphylococcus aureus at 2 times MIC preincubated for 1 hr with trypsin followed by enzyme inactivation and bacterial addition and measured after 18 hrs; type: functional; conditions: time 19 hrs
[2] = tested on: Staphylococcus aureus; assay: Bactericidal activity against Staphylococcus aureus ATCC 25923 incubated for 18 hrs by broth microdilution method; type: functional
[3] = Self-assembly property of compound in PBS assessed as beta-sheet nanofibers formation incubated for 1 hr by Thioflavin T based fluorescence spectrophotometer analysis; type: physicochemical; conditions: buffer, dose 0.5-1.5 µM
[4] = tested on: Klebsiella pneumoniae; assay: Bactericidal activity against Klebsiella pneumoniae ATCC 700603 incubated for 18 hrs by broth microdilution method; type: functional
[5] = tested on: Bacillus subtilis; assay: Antibacterial activity against Bacillus subtilis ATCC 23857 incubated for 18 hrs by broth microdilution method; type: functional
[6] = tested on: Bacillus subtilis; assay: Bactericidal activity against Bacillus subtilis ATCC 23857 incubated for 18 hrs by broth microdilution method; type: functional
[7] = tested on: Staphylococcus epidermidis; assay: Bactericidal activity against Staphylococcus epidermidis ATCC 12228 incubated for 18 hrs by broth microdilution method; type: functional
[8] = tested on: Klebsiella pneumoniae; assay: Antibacterial activity against Klebsiella pneumoniae ATCC 700603 incubated for 18 hrs by broth microdilution method; type: functional
[9] = tested on: Pseudomonas aeruginosa; assay: Antibacterial activity against Pseudomonas aeruginosa ATCC 27853 incubated for 18 hrs by broth microdilution method; type: functional
[10] = tested on: Escherichia coli; assay: Antibacterial activity against Escherichia coli ATCC 25922 incubated for 18 hrs by broth microdilution method; type: functional
[11] = Retention time of the compound; type: physicochemical
[12] = tested on: Pseudomonas aeruginosa; assay: Bactericidal activity against Pseudomonas aeruginosa ATCC 27853 incubated for 18 hrs by broth microdilution method; type: functional
[13] = tested on: Staphylococcus epidermidis; assay: Antibacterial activity against Staphylococcus epidermidis ATCC 12228 incubated for 18 hrs by broth microdilution method; type: functional
[14] = tested on: Escherichia coli; assay: Bactericidal activity against Escherichia coli ATCC 25922 incubated for 18 hrs by broth microdilution method; type: functional
[15] = tested on: Staphylococcus aureus; assay: Antibacterial activity against Staphylococcus aureus at 2 times MIC preincubated for 1 hr with chymotrypsin followed by enzyme inactivation and bacterial addition and measured after 18 hrs; type: functional; conditions: time 19 hrs
[16] = Self-assembly property of compound in PBS assessed as beta-sheet content; type: physicochemical; conditions: buffer
[17] = tested on: Erythrocyte; assay: Hemolytic activity in mouse erythrocytes assessed as concentration required to cause 10% hemolysis incubated for 1 hr; type: toxicity, cell-based
[18] = Self-assembly property of compound in water assessed as beta-sheet content; type: physicochemical
[19] = tested on: Staphylococcus aureus; assay: Antibacterial activity against Staphylococcus aureus ATCC 25923 incubated for 18 hrs by broth microdilution method; type: functional
[20] = Self-assembly property of compound in 50% TFE assessed as beta-sheet content; type: physicochemical
[21] = tested on: Staphylococcus aureus; assay: Antibacterial activity against methicillin resistant Staphylococcus aureus 75 incubated for 18 hrs by broth microdilution method; type: functional
[22] = tested on: Staphylococcus aureus; assay: Antibacterial activity against kanamycin resistant Staphylococcus aureus incubated for 18 hrs by broth microdilution method; type: functional
[23] = tested on: Escherichia coli; assay: Antibacterial activity against kanamycin resistant Escherichia coli incubated for 18 hrs by broth microdilution method; type: functional
[24] = tested on: Staphylococcus aureus; assay: Antibacterial activity against Staphylococcus aureus infected in BALB/c mouse systemic infection model assessed as reduction in liver bacterial load at 10 mg/kg, ip measured after 8 hrs; type: functional, organism-based
[25] = tested on: Staphylococcus aureus; assay: Antibacterial activity against Staphylococcus aureus infected in BALB/c mouse systemic infection model assessed as reduction in kidney bacterial load at 10 mg/kg, ip measured after 8 hrs; type: functional, organism-based
[26] = tested on: Pseudomonas aeruginosa; assay: Drug resistance against Pseudomonas aeruginosa assessed as fold increase in MIC after 40 consecutive days of passages by sequential passaging method; type: functional
[27] = tested on: Staphylococcus aureus; assay: Antibacterial activity against Staphylococcus aureus incubated for 18 hrs by broth microdilution method; type: functional
[28] = tested on: Staphylococcus aureus; assay: Antibacterial activity against Staphylococcus aureus S794 incubated for 18 hrs by broth microdilution method; type: functional
[29] = tested on: Staphylococcus aureus; assay: Antibacterial activity against Staphylococcus aureus S125 incubated for 18 hrs by broth microdilution method; type: functional
[30] = tested on: Staphylococcus aureus; assay: Antibacterial activity against Staphylococcus aureus infected in BALB/c mouse systemic infection model assessed as reduction in spleen bacterial load at 10 mg/kg, ip measured after 8 hrs; type: functional, organism-based
[31] = tested on: Staphylococcus aureus; assay: Antibacterial activity against Staphylococcus aureus infected in BALB/c mouse systemic infection model assessed as reduction in lung bacterial load at 10 mg/kg, ip measured after 8 hrs; type: functional, organism-based
[32] = tested on: Staphylococcus aureus; assay: Antibacterial activity against methicillin resistant Staphylococcus aureus 113 incubated for 18 hrs by broth microdilution method; type: functional
[33] = tested on: Staphylococcus aureus; assay: Antibacterial activity against rifampicin resistant Staphylococcus aureus incubated for 18 hrs by broth microdilution method; type: functional
[34] = tested on: Escherichia coli; assay: Antibacterial activity against Escherichia coli incubated for 18 hrs by broth microdilution method; type: functional
[35] = tested on: Escherichia coli; assay: Antibacterial activity against rifampicin resistant Escherichia coli incubated for 18 hrs by broth microdilution method; type: functional
[36] = tested on: Staphylococcus aureus; assay: Antibacterial activity against methicillin resistant Staphylococcus aureus incubated for 18 hrs by broth microdilution method; type: functional
[37] = tested on: Cell membrane; assay: Induction of cell membrane disruption in Staphylococcus aureus assessed as PI uptake at 2 times MIC incubated for 2 hrs by PI staining based flow cytometry analysis (reference value: 15.9%); type: cell membranes
[38] = tested on: Cell membrane; assay: Induction of cell membrane disruption in Escherichia coli assessed as PI uptake at 2 times MIC incubated for 2 hrs by PI staining based flow cytometry analysis (reference value: 11.9%); type: cell membranes
[39] = tested on: Staphylococcus aureus; assay: Induction of morphological change in Staphylococcus aureus assessed as bacterial lysis at 2 times MIC incubated for 30 mins by SEM analysis; type: functional, organism-based
[40] = tested on: Cell membrane; assay: Induction of cell membrane disruption in Staphylococcus aureus assessed as PI uptake at 2 to 4 times MIC incubated for 2 hrs by PI staining based confocal laser scanning microscopy; type: cell membranes
[41] = tested on: Pseudomonas aeruginosa; assay: Induction of morphological change in Pseudomonas aeruginosa assessed as bacterial collapse at 2 times MIC incubated for 30 mins by SEM analysis; type: functional, organism-based
[42] = tested on: Cell membrane; assay: Induction of cell membrane disruption in Staphylococcus aureus assessed as PI uptake at 4 times MIC incubated for 2 hrs by PI staining based flow cytometry analysis (reference value: 15.9%); type: cell membranes
[43] = tested on: Staphylococcus aureus; assay: Induction of morphological distortion in Staphylococcus aureus assessed as bacterial collapse at 2 times MIC incubated for 30 mins by SEM analysis; type: functional, organism-based
[44] = tested on: Pseudomonas aeruginosa; assay: Induction of morphological change in Pseudomonas aeruginosa assessed as bacterial lysis at 2 times MIC incubated for 30 mins by SEM analysis; type: functional, organism-based
[45] = tested on: Cell membrane; assay: Induction of cell membrane disruption in Escherichia coli assessed as PI uptake at 4 times MIC incubated for 2 hrs by PI staining based flow cytometry analysis (reference value: 11.9%); type: cell membranes
[46] = tested on: Pseudomonas aeruginosa; assay: Induction of morphological distortion in Pseudomonas aeruginosa assessed as bacterial collapse at 2 times MIC incubated for 30 mins by SEM analysis; type: functional, organism-based
[47] = tested on: Escherichia coli; assay: Antibacterial activity against Escherichia coli at 2 times MIC preincubated with 256 ug/ml LPS for 1 hr followed by bacterial addition and measured after 5 hrs; type: functional, organism-based; conditions: time 6.0 hrs
[48] = tested on: Staphylococcus aureus; assay: Induction of morphological change in Staphylococcus aureus assessed as bacterial collapse at 2 times MIC incubated for 30 mins by SEM analysis; type: functional, organism-based
[49] = tested on: Cell membrane; assay: Induction of cell membrane disruption in Escherichia coli assessed as PI uptake at 2 to 4 times MIC incubated for 2 hrs by PI staining based confocal laser scanning microscopy; type: cell membranes
[50] = Acute toxicity in mouse assessed as alveolar cavity wrinkling at 25.8 mg/kg, ip by H and E staining based assay; type: organism-based; conditions: in vivo
[51] = Acute toxicity in ip dosed mouse by karber method; type: organism-based; conditions: in vivo, ip
[52] = Acute toxicity in mouse assessed as tissue hemorrhage at 25.8 mg/kg, ip by H and E staining based assay; type: organism-based; conditions: in vivo
[53] = Acute toxicity in mouse assessed as lung cell necrosis at 25.8 mg/kg, ip by H and E staining based assay; type: organism-based; conditions: in vivo
[54] = Acute toxicity in mouse assessed as mortality rate at 21 mg/kg, ip by karber method; type: organism-based; conditions: in vivo
[55] = Acute toxicity in mouse assessed as cellular atrophy at 25.8 mg/kg, ip by H and E staining based assay; type: organism-based; conditions: in vivo
[56] = Acute toxicity in mouse assessed as mortality rate at 30 mg/kg, ip by karber method; type: organism-based; conditions: in vivo
[57] = Acute toxicity in mouse assessed as renal cell necrosis at 25.8 mg/kg, ip by H and E staining based assay; type: organism-based; conditions: in vivo
[58] = Acute toxicity in mouse assessed as inflammatory cell infiltration at 25.8 mg/kg, ip by H and E staining based assay; type: organism-based; conditions: in vivo
[59] = Acute toxicity in mouse assessed as hepatocyte necrosis at 25.8 mg/kg, ip by H and E staining based assay; type: organism-based; conditions: hepatocytes
[60] = Acute toxicity in mouse assessed as mortality rate at 25 mg/kg, ip by karber method; type: organism-based; conditions: in vivo

| Molecule | MBC [2] | MBC [4] | MIC [5] | MBC [6] | MBC [7] | MIC [8] | MIC [9] | MIC [10] | MBC [12] | MIC [13] | MBC [14] | MHC [17] | MIC [19] | MIC [21] | MIC [22] | MIC [23] | MIC [27] | MIC [28] | MIC [29] | MIC [32] | other results |
| --- | --- | --- | --- | --- | --- | --- | --- | --- | --- | --- | --- | --- | --- | --- | --- | --- | --- | --- | --- | --- | --- |
| NCCCC[C@@H](NC(=O)[C@H](N)Cc1c[nH]c2ccccc12)C(=O)N[C@H](Cc1c[nH]c2ccccc12)C(=O)N[C@H](CCCCN)C(=O)N[C@H](Cc1c[nH]c2ccccc12)C(=O)N1CCC[C@H]1C(=O)NCC(=O)N[C@H](Cc1c[nH]c2ccccc12)C(=O)N[C@H](CCCCN)C(=O)N[C@H](Cc1c[nH]c2ccccc12)C(=O)N[C@H](CCCCN)C(=O)N[C@H](Cc1c[nH]c2ccccc12)C(N)=O | 8 µM (≈ 14.4 µg/mL) | 8 µM (≈ 14.4 µg/mL) | 2 µM (≈ 3.6 µg/mL) | 8 µM (≈ 14.4 µg/mL) | 4 µM (≈ 7.2 µg/mL) | 8 µM (≈ 14.4 µg/mL) | 8 µM (≈ 14.4 µg/mL) | 8 µM (≈ 14.4 µg/mL) | 32 µM (≈ 57.6 µg/mL) | 4 µM (≈ 7.2 µg/mL) | 8 µM (≈ 14.4 µg/mL) | 46 µM | 4 µM (≈ 7.2 µg/mL) |  |  |  |  |  |  |  | Activity [1]: 100%; Activity [3]: Not Active; Retention_time [11]: 14.321 min; Activity [15]: 100%; Activity [16]: 63%; Activity [18]: 63.8%; Activity [20]: 30.1% |
| O=C(O)c1cn(C2CC2)c2cc(N3CCNCC3)c(F)cc2c1=O [CIPROFLOXACIN] |  |  | 2 µM (≈ 0.663 µg/mL) |  |  | 8 µM (≈ 2.65 µg/mL) | 2 µM (≈ 0.663 µg/mL) | < 1 µM |  | 8 µM (≈ 2.65 µg/mL) |  |  | 8 µM (≈ 2.65 µg/mL) | 256 µM (≈ 84.8 µg/mL) | 4 µM (≈ 1.33 µg/mL) | 2 µM (≈ 0.663 µg/mL) | 8 µM (≈ 2.65 µg/mL) | 256 µM (≈ 84.8 µg/mL) | 8 µM (≈ 2.65 µg/mL) | 16 µM (≈ 5.3 µg/mL) | Activity [24]: Active; Activity [25]: Active; fold change (FC) ([26]; time 18 hrs): 128; Activity [30]: inactive; Activity [31]: Active; MIC [33]: 0.5 µM (≈ 0.166 µg/mL); MIC [34]: 0.5 µM (≈ 0.166 µg/mL); MIC [35]: 0.5 µM (≈ 0.166 µg/mL); MIC [36]: 256 µM (≈ 84.8 µg/mL) |
| POLYMYXIN B [listing 1 of 2 here] | 32 µM | 2 µM | 4 µM | 8 µM | 16 µM | 2 µM | 1 µM | 2 µM | 1 µM | 8 µM | 2 µM |  | 8 µM | 16 µM | 8 µM | 16 µM | 8 µM | 8 µM | 8 µM | 8 µM | Activity [37]: 47.5%; Activity [38]: 42.6%; Activity [39]: Active; fold change (FC) ([26]; time 18.0 hrs): 8; Activity [40]: inactive; Activity [41]: Active; Activity [42]: 38%; Activity [43]: Active; Activity [44]: Active; Activity [45]: 45.4%; Activity [46]: Active; Activity [47]: inactive; Activity [48]: Active; MIC [33]: 2 µM; MIC [34]: 2 µM; MIC [35]: 2 µM; MIC [36]: 16 µM; Activity [49]: inactive |
| POLYMYXIN B [listing 2 of 2 here] |  |  |  |  |  |  |  |  |  |  |  | > 512 µM |  |  |  |  |  |  |  |  | Activity [50]: Toxic; LD50 [51]: 25.68 mg/kg; Activity [52]: Toxic; Activity [53]: Toxic; Activity [54]: 0%; Activity [55]: Toxic; Activity [56]: 80%; Activity [57]: Toxic; Activity [58]: Toxic; Activity [59]: Toxic; Activity [60]: 60% |
